Measurements reported in PMC7217150, “Synthesis, Modification, and Biological Evaluation of a Library of Novel Water‐Soluble Thiopyridone‐Based Organometallic Complexes and Their Unexpected (Biological) Behavior” (Chemistry (Weinheim an Der Bergstrasse, Germany), 2020).

Experiments:
Format in all cases: cell-based, human
[1] = test system: A549; assay: MTT cytotoxicity assay, monolayer culture; conditions: exposure time 96 h, means ± SDs
Source text: (§1) A549 (non‐small cell lung carcinoma), SW480 and HCT‐116 (both colon carcinoma) were kindly provided by Brigitte Marian, Institute of Cancer Research, Department of Medicine I, Medical University of Vienna, Austria. The cell line CH1/PA‐1 (ovarian teratocarcinoma) was kindly provided by Lloyd R. Kelland (CRC Centre for Cancer Therapeutics, Institute of Cancer Research, Sutton, UK). All cell culture media (including supplements) and reagents were obtained from Sigma–Aldrich, and all plasticware from StarLab, unless indicated otherwise.

[2] = test system: CH1/PA‐1; assay: MTT cytotoxicity assay, monolayer culture; conditions: CH1/PA‐1, MTT assay, exposure time 96 h, means ± SDs
Source text: as §1

[3] = test system: SW480; assay: MTT cytotoxicity assay, monolayer culture; conditions: for IC50: SW480, MTT assay, exposure time 96 h, means ± SDs
Source text: as §1

[4] = test system: CH1/PA‐1; assay: Cell cycle distribution, flow cytometry with propidium iodide; conditions: for Cell cycle distribution G1, % / Cell cycle distribution S, % / Cell cycle distribution G2/M, %: 24 h, mean ± SD; for Relative change in cell cycle distribution G1, % / Relative change in cell cycle distribution G2/M, % / Relative change in cell cycle distribution S, %: difference to untreated control
Protocol: (§2) The influence of two ligands, as well as seven complexes on cell cycle distribution was tested in two of the cancer cell lines (SW480, CH1/PA‐1) by means of flow cytometry. The cell cycle distribution (G1, S, G2/M phase in %; Table S37) was investigated upon DNA staining with propidium iodide.
(§3) CH1/PA‐1 and SW480 cells were harvested by trypsinization, 8×10^4 and 1.2×10^5 cells per well were seeded into 12‐well plates, respectively. The cells were allowed to attach and resume proliferation for 24 h after the seeding. […] After continuous exposure for 24 h at 37 °C and under 5 % CO2, the cells were harvested by trypsinization and centrifuged at 300 g for 3 min. The cells were washed with PBS (1 mL) and resuspended in propidium iodine (PI) containing HSF buffer (600 μL; 0.1 % Triton X‐100, 0.1 % sodium citrate, 50 μg mL^−1 PI in PBS). After incubation overnight at 4 °C in the dark, 5×10^3 cells were measured by flow cytometry with a Millipore Guava easyCyte 8HT instrument (Luminex, USA). Data were evaluated by means of FlowJo software (Tree Star) using Watson Pragmatic algorithms.60 The fitting of the curve was chosen to keep the root mean square error between 1.0 and 2.0, alongside with good fitting visual model.

[5] = test system: SW480; assay: as above; conditions: for Cell cycle distribution G1, % / Cell cycle distribution G2/M, % / Cell cycle distribution S, %: 24 h, mean ± SD; for Relative change in cell cycle distribution G1, % / Relative change in cell cycle distribution G2/M, % / Relative change in cell cycle distribution S, %: difference to untreated control
Protocol: as §2, §3

Cc1c([O-])c(=S)ccn1-c1cccc2ccccc12.Cc1ccc(C(C)C)cc1.[Cl-].[Ru+2] [Compound 3 d, Chlorido[2‐methyl‐1‐(naphthalene‐1‐yl)‐3‐(oxo‐κO)‐pyridine‐4(1H)‐thionato‐κS](η^6‐p‐cymene)ruthenium(II)]
IC50 [1]: 2100 ± 300 nM | IC50 [2]: 1600 ± 300 nM | IC50 [3]: 4000 ± 300 nM

Cc1c(O)c(=S)ccn1-c1cccc2ccccc12 [Compound 2 d, 3‐hydroxy‐2‐methyl‐1‐(naphthalene‐1‐yl)pyridine‐4(1H)‐thione]
IC50 ([1]; Homo sapiens): 1600 ± 100 nM | IC50 ([2]; Homo sapiens): 620 ± 80 nM | IC50 ([3]; Homo sapiens): 350 ± 20 nM

COc1cc([C@@H]2c3cc4c(cc3[C@@H](O[C@@H]3O[C@@H]5CO[C@@H](C)O[C@H]5[C@H](O)[C@H]3O)[C@H]3COC(=O)[C@H]23)OCO4)cc(OC)c1O [Etoposide, reference compound]
Cell cycle distribution G1, % ([4]; CH1/PA-1, 0.25 µM): 8 ± 5% | Cell cycle distribution S, % ([4]; CH1/PA-1, 0.25 µM): 15 ± 4% | Relative change in cell cycle distribution G1, % ([4]; CH1/PA-1, 0.25 µM): -32% | Relative change in cell cycle distribution G2/M, % ([4]; CH1/PA-1, 0.25 µM): 53% | Relative change in cell cycle distribution S, % ([4]; CH1/PA-1, 0.25 µM): -21% | Cell cycle distribution G1, % ([4]; CH1/PA-1, 0.5 µM): 4 ± 1% | Cell cycle distribution G2/M, % ([4]; CH1/PA-1, 0.5 µM): 85 ± 5% | Cell cycle distribution S, % ([4]; CH1/PA-1, 0.5 µM): 10 ± 3% | Relative change in cell cycle distribution G1, % ([4]; CH1/PA-1, 0.5 µM): -36% | Relative change in cell cycle distribution G2/M, % ([4]; CH1/PA-1, 0.5 µM): 61% | Cell cycle distribution G1, % ([4]; CH1/PA-1, 1 µM): 3 ± 3% | Cell cycle distribution G2/M, % ([4]; CH1/PA-1, 1 µM): 87 ± 6% | Cell cycle distribution S, % ([4]; CH1/PA-1, 1 µM): 10 ± 5% | Relative change in cell cycle distribution G1, % ([4]; CH1/PA-1, 1 µM): -37% | Relative change in cell cycle distribution G2/M, % ([4]; CH1/PA-1, 1 µM): 63% | Cell cycle distribution G1, % ([5]; SW480, 0.25 µM): 9 ± 2% | Cell cycle distribution G2/M, % ([5]; SW480, 0.25 µM): 65 ± 10% | Cell cycle distribution S, % ([5]; SW480, 0.25 µM): 26 ± 4% | Relative change in cell cycle distribution G1, % ([5]; SW480, 0.25 µM): -39% | Relative change in cell cycle distribution G2/M, % ([5]; SW480, 0.25 µM): 46% | Relative change in cell cycle distribution S, % ([5]; SW480, 0.25 µM): -7% | Cell cycle distribution G1, % ([5]; SW480, 0.5 µM): 3 ± 1% | Cell cycle distribution G2/M, % ([5]; SW480, 0.5 µM): 78 ± 6% | Cell cycle distribution S, % ([5]; SW480, 0.5 µM): 19 ± 7% | Relative change in cell cycle distribution G1, % ([5]; SW480, 0.5 µM): -45% | Relative change in cell cycle distribution G2/M, % ([5]; SW480, 0.5 µM): 59% | Relative change in cell cycle distribution S, % ([5]; SW480, 0.5 µM): -14% | Cell cycle distribution G1, % ([5]; SW480, 1 µM): 6 ± 4% | Cell cycle distribution G2/M, % ([5]; SW480, 1 µM): 65 ± 10% | Cell cycle distribution S, % ([5]; SW480, 1 µM): 30 ± 15% | Relative change in cell cycle distribution G1, % ([5]; SW480, 1 µM): -42% | Relative change in cell cycle distribution G2/M, % ([5]; SW480, 1 µM): 46% | Relative change in cell cycle distribution S, % ([5]; SW480, 1 µM): -3%

Cc1c([O-])c(=S)ccn1-c1ccccc1.Cc1ccc(C(C)C)cc1.[Cl-].[Ru+2] [Compound 3 b, Chlorido[2‐methyl‐3‐(oxo‐κO)‐1‐phenylpyridine‐4(1H)‐thionato‐κS](η^6‐p‐cymene)ruthenium(II)]
IC50 [1]: 2400 ± 800 nM | IC50 [2]: 940 ± 80 nM | IC50 [3]: 2800 ± 100 nM

Cc1c([O-])c(=S)ccn1-c1cccc2ccccc12.Cc1ccc(C(C)C)cc1.[Cl-].[Os+2] [Compound 4 d, Chlorido[2‐methyl‐1‐(naphthalene‐1‐yl)‐3‐(oxo‐κO)‐pyridine‐4(1H)‐thionato‐κS](η^6‐p‐cymene)osmium(II)]
IC50 [1]: 2400 ± 300 nM | IC50 [2]: 1300 ± 300 nM | IC50 [3]: 7700 ± 300 nM | IC50 relative to the osmium thiomaltol complex ([3]; SW480 cells): four times higher

Chlorido[1‐(naphthalene‐1‐yl)‐2‐methyl‐3‐oxo‐κO‐pyridine‐4(1H)‐thionato‐κS](η^5‐1,2,3,4,5‐pentamethylcyclopentadienyl)iridium(III) [Compound 6 d]
IC50 [1]: 2000 ± 400 nM | IC50 [2]: 680 ± 20 nM | IC50 [3]: 800 ± 150 nM

Cc1c(O)c(=S)ccn1Cc1ccccc1 [Compound 2 c, 3‐hydroxy‐2‐methyl‐1‐benzylpyridine‐4(1H)‐thione]
IC50 ([1]; Homo sapiens): 790 ± 120 nM | IC50 ([3]; Homo sapiens): 280 ± 40 nM | Cell cycle distribution G1, % ([4]; CH1/PA-1, 2.5 µM): 43 ± 16% | Cell cycle distribution G2/M, % ([4]; CH1/PA-1, 2.5 µM): 19 ± 9% | Cell cycle distribution S, % ([4]; CH1/PA-1, 2.5 µM): 37 ± 5% | Relative change in cell cycle distribution G1, % ([4]; CH1/PA-1, 2.5 µM): 3% | Relative change in cell cycle distribution G2/M, % ([4]; CH1/PA-1, 2.5 µM): -5% | Relative change in cell cycle distribution S, % ([4]; CH1/PA-1, 2.5 µM): 1% | Cell cycle distribution G1, % ([4]; CH1/PA-1, 5 µM): 31 ± 5% | Cell cycle distribution G2/M, % ([4]; CH1/PA-1, 5 µM): 32 ± 4% | Cell cycle distribution S, % ([4]; CH1/PA-1, 5 µM): 37 ± 2% | Relative change in cell cycle distribution G1, % ([4]; CH1/PA-1, 5 µM): -9% | Relative change in cell cycle distribution G2/M, % ([4]; CH1/PA-1, 5 µM): 8% | Relative change in cell cycle distribution S, % ([4]; CH1/PA-1, 5 µM): 1% | Cell cycle distribution G1, % ([4]; CH1/PA-1, 10 µM): 31 ± 6% | Cell cycle distribution G2/M, % ([4]; CH1/PA-1, 10 µM): 26 ± 10% | Cell cycle distribution S, % ([4]; CH1/PA-1, 10 µM): 43 ± 8% | Relative change in cell cycle distribution G1, % ([4]; CH1/PA-1, 10 µM): -9% | Relative change in cell cycle distribution G2/M, % ([4]; CH1/PA-1, 10 µM): 2% | Relative change in cell cycle distribution S, % ([4]; CH1/PA-1, 10 µM): 7% | effect on cell cycle distribution, in words ([4]; CH1/PA‐1 cells): little effect | decrease in G1 phase ([4]; CH1/PA‐1 cells, 10 μM): 9% | Cell cycle distribution G1, % ([5]; SW480, 5 µM): 30 ± 1% | Cell cycle distribution G2/M, % ([5]; SW480, 5 µM): 31 ± 3% | Cell cycle distribution S, % ([5]; SW480, 5 µM): 39 ± 2% | Relative change in cell cycle distribution G1, % ([5]; SW480, 5 µM): -18% | Relative change in cell cycle distribution G2/M, % ([5]; SW480, 5 µM): 12% | Relative change in cell cycle distribution S, % ([5]; SW480, 5 µM): 6% | Cell cycle distribution G1, % ([5]; SW480, 10 µM): 27 ± 3% | Cell cycle distribution G2/M, % ([5]; SW480, 10 µM): 27 ± 3% | Cell cycle distribution S, % ([5]; SW480, 10 µM): 45 ± 2% | Relative change in cell cycle distribution G1, % ([5]; SW480, 10 µM): -21% | Relative change in cell cycle distribution G2/M, % ([5]; SW480, 10 µM): 8% | Relative change in cell cycle distribution S, % ([5]; SW480, 10 µM): 12% | Cell cycle distribution G1, % ([5]; SW480, 20 µM): 34 ± 5% | Cell cycle distribution G2/M, % ([5]; SW480, 20 µM): 17 ± 3% | Cell cycle distribution S, % ([5]; SW480, 20 µM): 49 ± 1% | Relative change in cell cycle distribution G1, % ([5]; SW480, 20 µM): -14% | Relative change in cell cycle distribution G2/M, % ([5]; SW480, 20 µM): -2% | Relative change in cell cycle distribution S, % ([5]; SW480, 20 µM): 16% | decrease in G1 ([5]; SW480 cells, 2.5 μM): 18%

Chlorido[1‐phenyl‐2‐methyl‐3‐oxo‐κO‐pyridine‐4(1H)‐thionato‐κS](η^5‐1,2,3,4,5‐pentamethylcyclopentadienyl)iridium(III) [Compound 6 b]
IC50 [1]: 2200 ± 800 nM | IC50 [2]: 820 ± 50 nM | IC50 [3]: 590 ± 80 nM

Cc1c([O-])c(=S)ccn1C.Cc1ccc(C(C)C)cc1.[Cl-].[Os+2] [Compound 4 a, [Chlorido[1,2‐dimethyl‐3‐(oxo‐κO)‐pyridine‐4(1H)‐thionato‐κS](η^6‐p‐cymene)osmium(II)]]
IC50 [1]: > 200000 nM | IC50 [2]: 112000 ± 27000 nM | IC50 [3]: > 200000 nM

Cc1c(O)c(=S)ccn1-c1ccccc1 [Compound 2 b, 3‐hydroxy‐2‐methyl‐1‐phenylpyridine‐4(1H)‐thione]
IC50 ([1]; Homo sapiens): 1600 ± 1200 nM | IC50 ([2]; Homo sapiens): 520 ± 50 nM | IC50 ([3]; Homo sapiens): 520 ± 30 nM
